Laboratory results: patent US10583117B2, “Oxo-M and 4-PPBP induction of tenogenic differentiation of perivascular tendon stem cells” (The Trustees of Columbia University in the City of New York, priority 2016, dated 2020)
“Also recorded” adds a separate entry of the source.

Experiments:
[1] = system: fully transected rat patellar tendons; test: Healing of fully transected rat patellar tendon, delivery via fibrin glue; format: in vivo; details: for tendon healing, H&E staining: Oxo-M 1 mM, 4-PPBP 10 μM in fibrin; for alignment of collagen fibers (Picrosirius Red, automated digital image processing): n=6; for effect on induced tenogenic differentiation of PTSCs and tendon healing: overall statement
[2] = system: ERK1/2; test: Western blot, phosphorylation of ERK1/2 in PTSCs; format: cell-based, rat; details: 12 hours treatment in PTSCs
Procedure: (§1) Activation of FAK and ERK1/2 signaling by Oxo-M and 4-PPBP was further confirmed by western blot and siRNA knockdown (KD). […] With combined Oxo-M and 4-PPBP, both P-FAK and P-ERK1/2 were detected (FIG. 3A). […] In addition, siRNA KD of FAK and ERK1/2 were performed as described previously (Lee, et al., 2015, supra), which is hereby incorporated herein by reference in its entirety for all purposes.

[3] = system: FAK; test: Western blot, P-FAK in CD146- tendon cells; format: cell-based, rat; details: CD146− tendon cells (excluding PTSCs)
Procedure: as §1

[4] = system: FAK; test: Western blot, phosphorylation of FAK in PTSCs; format: cell-based, rat; details: 12 hours treatment in PTSCs
Procedure: as §1

[5] = system: CD146+ perivascular tendon stem/progenitor cells (PTSCs); format: cell-based, rat

Row | SMILES | collagen fibers, polarized Picrosirius Red images ([1]; 1 week post-op) | tendon healing, H&E staining ([1]; 1 week post-op) | collagen fibers, polarized Picrosirius Red images ([1]; 2 weeks post-op) | collagen in healing zone, Masson's Trichrome staining ([1]; 2 weeks post-op) | tendon healing, H&E staining ([1]; 2 weeks post-op) | alignment of collagen fibers (Picrosirius Red, automated digital image processing) [1] | effect on induced tenogenic differentiation of PTSCs and tendon healing [1] | phosphorylation of ERK1/2 (P-ERK1/2) [2] | P-FAK band [3] | phosphorylation of FAK (P-FAK) [4] | Scx gene expression [5] | Tn-C gene expression [5] | VIM gene expression [5] | COL-I gene expression ([5]; maleate) | COL-III gene expression ([5]; maleate)
1 | C[N+](C)(C)CC#CCN1CCCC1=O [Oxo-M, Oxotremorine methiodide] | disrupted collagen structure | disorganized scar-like tissue | disrupted collagen structure | disrupted collagen structure | scar-like healing | disoriented fibers | only minimal effect | resulted in phosphorylation | no P-FAK band | resulted in phosphorylation | significant increases; also recorded: significantly increased | significant increases; also recorded: significantly increased | significant increases; also recorded: significantly increased | – | –
2 | O=C(O)/C=C\C(=O)O.c1ccc(CCCCN2CCC(c3ccccc3)CC2)cc1 [4-PPBP, 4-phenyl-1-(4-phenylbutyl)-piperidine maleate] | disrupted collagen structure | disorganized scar-like tissue | disrupted collagen structure | disrupted collagen structure | scar-like healing | disoriented fibers | only minimal effect | – | no P-FAK band | resulted in phosphorylation | – | – | – | elevated; also recorded: significantly increased | elevated; also recorded: significantly increased
